Assay results from PubChem BioAssay AID1918949 (Molecular Pharmacology Branch, DTP, NCI, 2023).

Tested on: K24384-001-R-PDC complex spheroid viability
Experiment: Anticancer human tumor K24384-001-R-PDC patient-derived pancreatic adenocarcinoma cell line growth inhibition
Conditions: for IC50: curve of first compound; for viability, T/C: stronger effect = lower value; active = viability on the fitted dose curve at most 10% of control; inactive = the rest
From the text: Multicellular complex tumor spheroid response to LSD1 Inhibitor Iadademstat in combination with a variety of drugs and investigational agents in selected tumor cell lines
The current study was undertaken to assess response to LSD1 inhibitors in combination with standard-of-care drugs and investigational agents in solid tumor complex spheroid models as well as in the K-562 leukemia. Complex spheroids include a stromal component modeled by human endothelial cells (HUVEC) and fibroblasts modeled by human mesenchymal stem cells (MSCs). The concentration ranges selected for each drug and investigational agent were based upon clinically achievable concentrations if the clinical Cmax of the agent was known.
Compounds. The drugs and investigational agents used in this study are listed on Table 1. All of the agents used, including staurosporine (NSC755774) and gemcitabine (NSC613327), were obtained from the Developmental Therapeutics Program, NCI. FDA-approved anticancer drugs are available from the NCI at http://dtp.nci.nih.gov/branches/dscb/oncology_drugset_explanation.html. Drugs and investigational agents were >95% pure by proton nuclear magnetic resonance (NMR) and liquid chromatography/mass spectrometry (LC/MS). Stock solutions were prepared at 400x in DMSO, stored at -70 degrees C, and diluted in fresh medium prior to their use. The final concentration of DMSO in cell culture wells never exceeded 0.25% (v/v). The FDA-approved anticancer drug set is available from the Developmental Therapeutics Program at https://dtp.cancer.gov/organization/dscb/obtaining/available_plates.htm. All drugs and investigational agents were tested over a range starting from a high concentration at or near the clinical Cmax and decreasing in half-log increments. If the clinical Cmax for an agent had not been determined, the highest concentration tested was 10 microM.
Cell Lines. The patient-derived cancer cell (PDC) lines: 292921-168-R-J2-PDC, K24384-001-R-PDC, and 521955-158-R2-J5-PDC pancreatic carcinomas, 556581-035-R-J1 ovarian carcinoma, 324938-238-R-J1-PDC, 855422-203-R-J1-PDC and 883617-216-R-J1-PDC urothelial bladder carcinomas, 743489-274-T-PDC renal cell carcinoma, 138582-R-J1 Merkel cell tumor, K60290-347-R-J1 and K57222-313-R-J1-PDC glioblastomas, 653999-131-R-J2-PDC, LG0703-F948-PDC, and 349418-098-R-PDC non-small cell lung carcinomas, 885512-296-R-J2-PDC, 171881-019-R-J1-PDC breast carcinomas and 186277-243-T-J2-PDC and 233499-124-R-J2-PDC colon carcinomas were obtained from the NCI Patient-Derived Models Repository (PDMR, https://pdmr.cancer.gov). The established cell lines NCI/ADR-RES (RRID:CVCL_14520 and OVCAR-5 (RRID:CVCL_1628) ovarian carcinomas, 786-O (RRID:CVCL_1051) and A498 (RRID:CVCL_A498) renal cell carcinoma, NCI-H211 (ATCC, cat. CRL-5824; RRID:CVCL_1529), NCI-H196 (ATCC, cat. CRL-5823, RRID:CVCL_1509), SW 1271 (ATCC, cat. CRL-2177, RRID:CVCL_1716) and NCI-H1876 (ATCC, cat. CRL-5902, RRID:CVCL_1503) small cell lung carcinomas, MDA-MB-231 (RRID:CVCL_0062) and MDA-MB-468 (RRID:CVCL_0419)breast carcinomas (10-12). Pooled donor human umbilical vein endothelial cells (HUVEC, Lonza, cat. CC-2519) and human mesenchymal stem cells (hMSC, Lonza, cat. PT-2501) were purchased from Lonza (Walkersville, MD).
Cell Culture. All cells were maintained in an incubator at 37 degrees C and 5% CO2 with 95% humidity. The PDC lines were cultured according to standard operating procedures established by the NCI PDMR (https://pdmr.cancer.gov). Briefly all PDCs were thawed and cultured in Matrigel-coated flasks prepared with a working solution of 1X Ham's F-12 nutrient mix, without supplementation (Invitrogen, Waltham, MA, cat. 11765054), 100 U/mL penicillin-streptomycin (Invitrogen, cat. 15140122), and 2.5% Matrigel (Corning Inc., Corning, NY, cat. 354248) for the first three passages. […]

[1] = second compound 0.1 µM, first compound 0.000316 µM
[2] = second compound 0.1 µM, first compound 0.001 µM
[3] = second compound 0.1 µM, first compound 0.00316 µM
[4] = second compound 0.1 µM, first compound 0.01 µM
[5] = second compound 0.1 µM, first compound 0.0316 µM
[6] = second compound 0.1 µM, first compound 0.1 µM
[7] = second compound 0.316 µM, first compound 0.000316 µM
[8] = second compound 0.316 µM, first compound 0.001 µM
[9] = second compound 0.316 µM, first compound 0.00316 µM
[10] = second compound 0.316 µM, first compound 0.01 µM
[11] = second compound 0.316 µM, first compound 0.0316 µM
[12] = second compound 0.316 µM, first compound 0.1 µM
[13] = second compound 1 µM, first compound 0.000316 µM
[14] = second compound 1 µM, first compound 0.001 µM
[15] = second compound 1 µM, first compound 0.00316 µM
[16] = second compound 1 µM, first compound 0.01 µM
[17] = second compound 1 µM, first compound 0.0316 µM
[18] = second compound 1 µM, first compound 0.1 µM
[19] = second compound 3.16 µM, first compound 0.000316 µM
[20] = second compound 3.16 µM, first compound 0.001 µM
[21] = second compound 3.16 µM, first compound 0.00316 µM
[22] = second compound 3.16 µM, first compound 0.01 µM
[23] = second compound 3.16 µM, first compound 0.0316 µM
[24] = second compound 3.16 µM, first compound 0.1 µM
[25] = second compound 10 µM, first compound 0.000316 µM
[26] = second compound 10 µM, first compound 0.001 µM
[27] = second compound 10 µM, first compound 0.00316 µM
[28] = second compound 10 µM, first compound 0.01 µM
[29] = second compound 10 µM, first compound 0.0316 µM
[30] = second compound 10 µM, first compound 0.1 µM
[31] = second compound 0.1 µM, first compound 0.00949 µM
[32] = second compound 0.1 µM, first compound 0.03 µM
[33] = second compound 0.1 µM, first compound 0.0949 µM
[34] = second compound 0.1 µM, first compound 0.3 µM
[35] = second compound 0.1 µM, first compound 0.949 µM
[36] = second compound 0.1 µM, first compound 3 µM
[37] = second compound 0.316 µM, first compound 0.00949 µM
[38] = second compound 0.316 µM, first compound 0.03 µM
[39] = second compound 0.316 µM, first compound 0.0949 µM
[40] = second compound 0.316 µM, first compound 0.3 µM
[41] = second compound 0.316 µM, first compound 0.949 µM
[42] = second compound 0.316 µM, first compound 3 µM
[43] = second compound 1 µM, first compound 0.00949 µM
[44] = second compound 1 µM, first compound 0.03 µM
[45] = second compound 1 µM, first compound 0.0949 µM
[46] = second compound 1 µM, first compound 0.3 µM
[47] = second compound 1 µM, first compound 0.949 µM
[48] = second compound 1 µM, first compound 3 µM
[49] = second compound 3.16 µM, first compound 0.00949 µM
[50] = second compound 3.16 µM, first compound 0.03 µM
[51] = second compound 3.16 µM, first compound 0.0949 µM
[52] = second compound 3.16 µM, first compound 0.3 µM
[53] = second compound 3.16 µM, first compound 0.949 µM
[54] = second compound 3.16 µM, first compound 3 µM
[55] = second compound 10 µM, first compound 0.00949 µM
[56] = second compound 10 µM, first compound 0.03 µM
[57] = second compound 10 µM, first compound 0.0949 µM
[58] = second compound 10 µM, first compound 0.3 µM
[59] = second compound 10 µM, first compound 0.949 µM
[60] = second compound 10 µM, first compound 3 µM
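Note: spheroids exposed to agents for seven days before luminescence viability reading.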

CC(C)CC(NC(=O)C(Cc1ccccc1)NC(=O)c1cnccn1)B(O)O (stereo not given) + NC1CC1c1ccc(-c2cccc(O)c2)cc1
inactive: viability, T/C [1] 85.9% | viability, T/C [7] 95.9% | viability, T/C [13] 92% | viability, T/C [19] 85.5% | viability, T/C [25] 59.5%
active: viability, T/C [2] 2.19% | viability, T/C [3] 0.45% | viability, T/C [4] 0.17% | viability, T/C [5] 0.24% | viability, T/C [6] 0.27% | viability, T/C [8] 1.68% | viability, T/C [9] 2.35% | viability, T/C [10] 0.3% | viability, T/C [11] 0.24% | viability, T/C [12] 1.4% | viability, T/C [14] 1.87% | viability, T/C [15] 0.24% | viability, T/C [16] 0.3% | viability, T/C [17] 0.15% | viability, T/C [18] 0.92% | viability, T/C [20] 1.44% | viability, T/C [21] 0.32% | viability, T/C [22] 0.19% | viability, T/C [23] 0.18% | viability, T/C [24] 0.22% | viability, T/C [26] 1.6% | viability, T/C [27] 3.23% | viability, T/C [28] 1.83% | viability, T/C [29] 1.14% | viability, T/C [30] 2.44%
0.554 nM: IC50 (second compound 0.316 µM)
0.514 nM: IC50 (second compound 3.16 µM)
0.541 nM: IC50 (second compound 1 µM)
0.518 nM: IC50 (second compound 0.1 µM)
0.383 nM: IC50 (second compound 10 µM)

CC(C)CC(NC(=O)CNC(=O)c1cc(Cl)ccc1Cl)B1OC(=O)CC(CC(=O)O)(C(=O)O)O1 (stereo not given) + NC1CC1c1ccc(-c2cccc(O)c2)cc1
8.54 nM: IC50 (second compound 1 µM)
7.15 nM: IC50 (second compound 10 µM)
8.97 nM: IC50 (second compound 0.1 µM)
8.66 nM: IC50 (second compound 3.16 µM)
9.19 nM: IC50 (second compound 0.316 µM)
inactive: viability, T/C [1] 121% | viability, T/C [2] 123% | viability, T/C [3] 97.3% | viability, T/C [4] 46.6% | viability, T/C [7] 114% | viability, T/C [8] 113% | viability, T/C [9] 95.4% | viability, T/C [10] 47.8% | viability, T/C [13] 112% | viability, T/C [14] 129% | viability, T/C [15] 117% | viability, T/C [16] 38.8% | viability, T/C [19] 117% | viability, T/C [20] 109% | viability, T/C [21] 101% | viability, T/C [22] 42.9% | viability, T/C [25] 111% | viability, T/C [26] 136% | viability, T/C [27] 103% | viability, T/C [28] 28.1%
active: viability, T/C [5] 4.82% | viability, T/C [6] 0.93% | viability, T/C [11] 4.68% | viability, T/C [12] 0.79% | viability, T/C [17] 4.54% | viability, T/C [18] 0.98% | viability, T/C [23] 4.31% | viability, T/C [24] 0.85% | viability, T/C [29] 2.96% | viability, T/C [30] 0.48%

Nc1ccccc1NC(=O)c1ccc(CNC(=O)OCc2cccnc2)cc1 + NC1CC1c1ccc(-c2cccc(O)c2)cc1
active: viability, T/C [35] 9.69% | viability, T/C [36] 0.15% | viability, T/C [41] 7.2% | viability, T/C [42] 0.13% | viability, T/C [47] 5.63% | viability, T/C [48] 0.16% | viability, T/C [53] 3.27% | viability, T/C [54] 0.11% | viability, T/C [59] 3.08% | viability, T/C [60] 0.17%
430 nM: IC50 (second compound 0.1 µM)
312 nM: IC50 (second compound 10 µM)
328 nM: IC50 (second compound 3.16 µM)
358 nM: IC50 (second compound 1 µM)
389 nM: IC50 (second compound 0.316 µM)
inactive: viability, T/C [31] 111% | viability, T/C [32] 113% | viability, T/C [33] 118% | viability, T/C [34] 68.7% | viability, T/C [37] 95.7% | viability, T/C [38] 121% | viability, T/C [39] 115% | viability, T/C [40] 63.1% | viability, T/C [43] 101% | viability, T/C [44] 112% | viability, T/C [45] 115% | viability, T/C [46] 58.6% | viability, T/C [49] 96.1% | viability, T/C [50] 117% | viability, T/C [51] 109% | viability, T/C [52] 54% | viability, T/C [55] 101% | viability, T/C [56] 110% | viability, T/C [57] 95.6% | viability, T/C [58] 52.5%

O=C(C=Cc1cccc(S(=O)(=O)Nc2ccccc2)c1)NO + NC1CC1c1ccc(-c2cccc(O)c2)cc1
235 nM: IC50 (second compound 3.16 µM)
active: viability, T/C [35] 3.97% | viability, T/C [36] 2.49% | viability, T/C [41] 4.35% | viability, T/C [42] 1.43% | viability, T/C [47] 5.51% | viability, T/C [48] 0.1% | viability, T/C [53] 4.17% | viability, T/C [54] 0.1% | viability, T/C [59] 5.8% | viability, T/C [60] 0.18%
233 nM: IC50 (second compound 0.316 µM)
185 nM: IC50 (second compound 10 µM)
229 nM: IC50 (second compound 1 µM)
240 nM: IC50 (second compound 0.1 µM)
inactive: viability, T/C [31] 105% | viability, T/C [32] 111% | viability, T/C [33] 95.5% | viability, T/C [34] 39.3% | viability, T/C [37] 90% | viability, T/C [38] 108% | viability, T/C [39] 117% | viability, T/C [40] 34.4% | viability, T/C [43] 80.9% | viability, T/C [44] 113% | viability, T/C [45] 98.1% | viability, T/C [46] 35.6% | viability, T/C [49] 85% | viability, T/C [50] 124% | viability, T/C [51] 103% | viability, T/C [52] 35.5% | viability, T/C [55] 81.1% | viability, T/C [56] 114% | viability, T/C [57] 70.7% | viability, T/C [58] 32.7%
